According to ChEMBL document CHEMBL1201862, “PubChem BioAssay data set” (2004):
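Growth conditions: 96-well plates. Treatment: test compound, 48 hours, 5 concentrations. Analysis: linear interpolation between bracketing concentrations; unreached endpoints set to highest concentration. Here, GI50 denotes the concentration required for 50% inhibition of growth.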 Calls of active or inactive are those of the source. No stated cut-off is given here; in the data, active = GI50 up to about 1.1 µM and inactive = higher. Peptide text beside a SMILES is read from it. * marks the point of attachment. Boc = CC(C)(C)OC(=O)*

Legend:
Test in all cases: NCI anticancer screen, dose series, 48 h
K562 = test system: K562
CCRF-CEM = test system: CCRF-CEM
HCT-15 = test system: HCT-15
NCI/ADR-RES = test system: NCI/ADR-RES
UACC-257 = test system: UACC-257
M14 = test system: M14
MDA-MB-435 = test system: MDA-MB-435
HOP-62 = test system: HOP-62
LOX IMVI = test system: LOX IMVI
MDA-N = test system: MDA-N
HOP-92 = test system: HOP-92
SW-620 = test system: SW-620
OVCAR-3 = test system: OVCAR-3
OVCAR-8 = test system: OVCAR-8
HCT-116 = test system: HCT-116
SN12C = test system: SN12C
HT-29 = test system: HT-29
SK-MEL-2 = test system: SK-MEL-2
A498 = test system: A498
Hs-578T = test system: Hs-578T

Row | SMILES | GI50 (K562) | GI50 (CCRF-CEM) | GI50 (HCT-15) [µM] | GI50 (NCI/ADR-RES) | GI50 (UACC-257) | GI50 (M14) | GI50 (MDA-MB-435) | GI50 (HOP-62) | GI50 (LOX IMVI) | GI50 (MDA-N) | GI50 (HOP-92) | GI50 (SW-620) | GI50 (OVCAR-3) | GI50 (OVCAR-8) | GI50 (HCT-116) | GI50 (SN12C) | GI50 (HT-29) | GI50 (SK-MEL-2) | GI50 (A498) | GI50 (Hs-578T)
1 | O=C(Nc1ccccc1)Nn1c(-c2cccs2)nc2ccc(I)cc2c1=O | 0.022 µM (active) | 20.5 µM (inactive) | 31.5 | 30.6 µM (inactive) | 17.2 µM (inactive) | 35.9 µM (inactive) | 20.1 µM (inactive) | 51.4 µM (inactive) | 19.2 µM (inactive) | 23.2 µM (inactive) | 6.3 µM (inactive) | 39.4 µM (inactive) | 11 µM (inactive) | 33.3 µM (inactive) | 31.4 µM (inactive) | 34.8 µM (inactive) | 25.9 µM (inactive) | – | – | –
2 | CCOc1ccc(/N=C\c2cc(OC)c(OC)c(OC)c2)cc1 | 52.5 µM (inactive) | > 100 µM (inactive) | 32.4 | – | > 100 µM (inactive) | > 100 µM (inactive) | – | > 100 µM (inactive) | > 100 µM (inactive) | – | > 100 µM (inactive) | 14.9 µM (inactive) | > 100 µM (inactive) | > 100 µM (inactive) | > 100 µM (inactive) | > 100 µM (inactive) | > 100 µM (inactive) | > 100 µM (inactive) | > 100 µM (inactive) | –
3 | Cn1c(-c2ccc(C=O)o2)ccc1-c1ccc(C=O)o1 | 35.5 µM (inactive) | > 100 µM (inactive) | 34 | 35.7 µM (inactive) | 51.4 µM (inactive) | 31 µM (inactive) | 38.6 µM (inactive) | 45.3 µM (inactive) | 31.7 µM (inactive) | 33.4 µM (inactive) | 36.6 µM (inactive) | 35.4 µM (inactive) | 26.2 µM (inactive) | 30.4 µM (inactive) | 18.4 µM (inactive) | 37.6 µM (inactive) | 36.1 µM (inactive) | > 100 µM (inactive) | > 100 µM (inactive) | –
4 | CC1=C(/C(C)=N/NC(=O)C(N)=O)Sc2ccccc2N1 | > 100 µM (inactive) | > 100 µM (inactive) | > 100 | – | > 100 µM (inactive) | > 100 µM (inactive) | – | > 100 µM (inactive) | > 100 µM (inactive) | – | 95.1 µM (inactive) | > 100 µM (inactive) | > 100 µM (inactive) | > 100 µM (inactive) | 10 µM (inactive) | > 100 µM (inactive) | > 100 µM (inactive) | > 100 µM (inactive) | > 100 µM (inactive) | –
5 | NC1=NNC2(C(N)=N1)c1ccccc1-c1ccccc12 | – | – | > 10 | > 10 µM (inactive) | > 10 µM (inactive) | > 10 µM (inactive) | > 10 µM (inactive) | > 10 µM (inactive) | > 10 µM (inactive) | – | > 10 µM (inactive) | > 10 µM (inactive) | – | > 10 µM (inactive) | > 10 µM (inactive) | > 10 µM (inactive) | > 10 µM (inactive) | – | – | > 10 µM (inactive)
6 | COc1cc(C(=O)C/C(CCC(=O)Nc2ccccc2[N+](=O)[O-])=N\NC(N)=O)ccc1O | > 100 µM (inactive) | > 100 µM (inactive) | > 100 | – | > 100 µM (inactive) | > 100 µM (inactive) | – | > 100 µM (inactive) | > 100 µM (inactive) | – | > 100 µM (inactive) | > 100 µM (inactive) | > 100 µM (inactive) | > 100 µM (inactive) | > 100 µM (inactive) | > 100 µM (inactive) | > 100 µM (inactive) | > 100 µM (inactive) | > 100 µM (inactive) | –
7 | O=C(/C=C/c1ccc(Br)cc1)c1ccc(NCc2nc3ccccc3[nH]2)cc1 | 3.35 µM (inactive) | 4.76 µM (inactive) | 3.95 | – | 3.81 µM (inactive) | 17.9 µM (inactive) | – | 22.2 µM (inactive) | 2.11 µM (inactive) | – | 4 µM (inactive) | 2.96 µM (inactive) | 4.61 µM (inactive) | 3.37 µM (inactive) | 4.66 µM (inactive) | 9.93 µM (inactive) | 4.65 µM (inactive) | 17.6 µM (inactive) | 19.1 µM (inactive) | –
8 | COc1ccc2c(c1)CCN=C2Cc1ccccc1CCCl | 18 µM (inactive) | 20.7 µM (inactive) | 20.6 | 19.1 µM (inactive) | 30.7 µM (inactive) | 19.1 µM (inactive) | 17.1 µM (inactive) | 36.5 µM (inactive) | – | – | 23.7 µM (inactive) | 26.1 µM (inactive) | 33.9 µM (inactive) | 23.4 µM (inactive) | 11.9 µM (inactive) | 24.3 µM (inactive) | 12.2 µM (inactive) | 25.5 µM (inactive) | 51.9 µM (inactive) | 62.4 µM (inactive)
9 | C[N+](C)(C)CC1CCC(C[N+](C)(C)C)C1=O (configuration not stated) | 0.359 µM (active) | – | 1.78 | – | 2.92 µM (inactive) | 1.72 µM (inactive) | 16.3 µM (inactive) | 19.2 µM (inactive) | 4.84 µM (inactive) | 4.94 µM (inactive) | 0.92 µM (active) | – | 2.39 µM (inactive) | – | 1.71 µM (inactive) | 4.12 µM (inactive) | 1.56 µM (inactive) | 14.9 µM (inactive) | 6.78 µM (inactive) | 38.6 µM (inactive)
10 | C#CCN(Cc1ccc2[nH]c(N)nc(=O)c2c1)c1ccc(C(=O)NC(CCC(=O)O)C(=O)O)cc1 (configuration not stated) | – | 6.5 µM (inactive) | > 100 | 36.6 µM (inactive) | > 100 µM (inactive) | 51.3 µM (inactive) | > 100 µM (inactive) | 23.4 µM (inactive) | 3.24 µM (inactive) | > 100 µM (inactive) | 28.7 µM (inactive) | > 100 µM (inactive) | 9.71 µM (inactive) | 4.4 µM (inactive) | > 100 µM (inactive) | 6.71 µM (inactive) | > 100 µM (inactive) | – | 15.7 µM (inactive) | –
11 | Cn1c2ccccc2c2[nH]cc3nc4ccccc4c-3c21 | 26.7 µM (inactive) | 30.8 µM (inactive) | 19.9 | – | 22.3 µM (inactive) | 17.9 µM (inactive) | – | > 100 µM (inactive) | 21.3 µM (inactive) | – | 27.2 µM (inactive) | 24.7 µM (inactive) | 17.1 µM (inactive) | 20.3 µM (inactive) | 12.6 µM (inactive) | 23.5 µM (inactive) | 15.8 µM (inactive) | > 100 µM (inactive) | 18.7 µM (inactive) | –
12 | COC(=O)C(Cc1c[nH]c2ccccc12)NC(=O)C(Cc1c[nH]c2ccccc12)NC(=O)C(Cc1c[nH]c2ccccc12)NC(=O)C(Cc1c[nH]c2ccccc12)NC(=O)C(Cc1c[nH]c2ccccc12)NC(=O)OC(C)(C)C (configuration not stated) (Boc-WWWWW-OMe; configuration not given here) | 36.8 µM (inactive) | 74 µM (inactive) | > 100 | – | > 100 µM (inactive) | 33.3 µM (inactive) | > 100 µM (inactive) | > 100 µM (inactive) | 67.6 µM (inactive) | 92 µM (inactive) | – | > 100 µM (inactive) | > 100 µM (inactive) | > 100 µM (inactive) | 29.7 µM (inactive) | > 100 µM (inactive) | > 100 µM (inactive) | 45.2 µM (inactive) | – | –
